The values that follow come from patent US20140262287A1, “ENVIRONMENTALLY FRIENDLY QUATERNARY SALTS OF AMINES AND THEIR USE AS TEMPORARY AND/OR PERMANENT CLAY STABILIZERS AND METHODS FOR MAKING AND USING SAME” (CLEARWATER INTERNATIONAL, LLC, priority 2013, published 2014).

The term LC50 denotes the concentration that kills 50% of the test population.

The nature of series [1]: Clay stabilization test (water separation from 1% clay solution). The settings on record: dosage 0.5 (wt. %/100 mL); 60 minutes; 100 mL of 1% clay solution; (Top)/(Middle) printed in cell. How it is done: (§1) Clay Solution Preparation
To make 100 mL of a clay solution, measure 1 g of Cream Bentonite Clay or Weatherford Bentonite Clay material. Add 99 g of distilled water and shake bottle until all the clay is dissolved.
Measure 100 ml of clay solution in a graduated cylinder. Shake 10 times. Record separation time and clay precipitation.
Measure 100 mL of clay solution in a graduated cylinder and add 0.5 mL of the desired clay stabilizer. Shake 10 times. Record separation time and clay coagulation. Record clay deposition, swelling and water release.

The conditions of series [2]: Linear Swell after 23 hours; 6000 ppm; Bentonite pellet.
Method: The Linear Swell Meter was OFITE 115V Dynamic Linear Swell Meter Model #150-80. 14 g of Bentonite was added to a pelletizercompactor and 10,000 psi pressure was applied for 30 minutes. The pellet was removed from the compactor. Ensure all components of the Linear Swell Meter are clean: transfer stand, cap for wafer tube, bottom plate, magnetic stir bar, Teflon washer, and cup. With both the screens in the linear swell meter cell, the swell meter was zeroed out by clicking on the specific cell(s) to be zeroed out and clicked “apply”. One of the screens from the cell was removed and the pellet was added on top of the other screen. The other screen was put on top of the pellet. The transfer stand was gently placed on top of the pellet. The cell was placed on the magnetic stir plate underneath the linear variable differential transformer (LVDT) to make sure that the spindle was directly centered on top of the transfer stand. The fluid to be tested was poured through the hole on the cap for the wafer tube, the box was checked to start the cell and “apply” was clicked. Doing this will start the test for the specific cell.
Series [3] in a line: Capillary suction timer clay stabilization test. The settings on record: 2 g Bentonite in 100 g solution. How it is done:
A rock sample was placed in a Gyral Grinder and grinding of the rock sample was begun. The rock sample was ground for 1 hour using a timer. The ground rock sample was placed into a 200-mesh sieve. The aggregate that passed through the sieve was placed in a pan for testing and placed to the side.
Using a 100 mL volumetric flask, a solution was prepared that will be used to mix with the rock sample. At least one solution should be prepared as the sample with straight tap water will be used as a reference blank. 100 g of solution was added to a 250 mL beaker equipped with a magnetic stir bar. A specified amount of each shale inhibitor was added to the beaker. The beaker was placed on stir plate and stirring was begun at a speed at which a vortex reaches the bottom of the beaker. 2 g of the untreated Bentonite sample was added and a timer was set for 5 minutes. After 5 minutes, the stir plate was turned off, the solution was poured into a 100 mL graduated cylinder, and a timer was set for 15 minutes. After 15 minutes, the mixture was poured back into the beaker, the beaker was placed on the magnetic stir plate and stirring was restarted on the plate. Wait until the vortex returned and the clay had become dispersed.
A Venture Innovations capillary suction timer (CST) from Venture Chemicals, Inc. in Lafayette, La. was used in the tests. Before each test, the test head, filter paper, and stainless steel funnel were cleaned and dried. Make sure the cable from the test head was plugged into the control box and the reading on the control box display was reset to zero. A piece of 7×9 cm CST filter paper from Venture Innovations Inc. (part no. IFP-9053) was placed on the test head with the stainless steel probes facing down. The stainless steel funnel was fitted into the test head.
Using a 5-mL syringe, 5-mL of sample was withdrawn from the vortex. Consecutive samples were removed from the same position in the vortex, where the previous sample was taken. A 5 mL sample was charged into the stainless steel funnel. The 5 mL sample charge was repeated twice more. Instrument started automatically when a beep sounds from the control box. When this beep sounded, the timer started. […]

Series [4] is described as follows: Water release clay stabilization test. Also noted: unit not given here. To be noted: 100 mL of 1 wt. % Wyoming Bentonite clay solution. How it is done: as §1
To make 1 wt. % clay solution, 23 g of Wyoming Bentonite Clay and 2277 g of distilled water were added to a bottle and shaken until all the clay was dissolved. […]
Measure 100 mL of clay solution into 6 graduated cylinders. […] The addition of the clay stabilizers at 0.1 mL, 0.2 mL, 0.4 mL, 0.6 mL, 0.8 mL, and 1.0 mL in 100 mL of a clay solution corresponds to 1, 2, 4, 6, 8 and 10 Gallons per Thousand (or gpt). Invert the cylinders 20 times. Start timer and record separation time and clay coagulation. Record clay deposition, swelling and water release.

Series [5] deals with Fathead Minnow (pimephales promelas). Description: Acute toxicity minnow survival test. It is filed as in vivo. The settings on record: for LC50: acute toxicity survival, Examples 4 and 5 range-finding and definitive test, TMAC and Example 3 range-finding test only; for toxicity to minnows compared with TMAC / prior art: comparison in words, data of Table II. As for the experimental part: As a consequence, the “definitive” test gave a more precise LC50 value. LC50 was determined using a log-normal transformation coupled with linear regression between the bracketing no observed effect concentration (NOEC) and lowest observed effect concentration (LOEC). Both the range finding and definitive tests were run on Example 4 and Example 5. Only the ranging finding test was run for TMAC and Example 3.

For `C[N+](C)(C)CCO.[Cl-]` [Choline Chloride, reference compound], in series [1], the “Final Water (mL)” value is reported as 27 mL/60 minutes (Top). The “% Swell” value in series [2] came to 88.9%.

For the compound `OCC[N+](CCO)(CCO)Cc1ccccc1.[Cl-]` [Example 4], the “CST Time” value in series [3] (CST concentration 4000 ppm) was 18 s. In series [4], the “WR (water release at 60 minutes) 2.0 gpt” value is recorded as 27, the “WR (water release at 60 minutes) 4.0 gpt” value turned out to be 33, the “WR (water release at 60 minutes) 6.0 gpt” value stood at 34 and the “WR (water release at 60 minutes) 8.0 gpt” value worked out at 33. The “WR (water release at 60 minutes) 10.0 gpt” value in series [4] turned out to be 32. For the same compound, in series [5], the LC50 came to 3160 µg/mL and the “toxicity to minnows compared with TMAC / prior art” value is “much less toxic than TMAC”.

`CCOS(=O)(=O)[O-].CC[N+](CCO)(CCO)CCO` [Example 5]: in series [1], the “Final Water (mL)” value is 20 mL/60 minutes (Middle). Besides, the “CST Time” value in series [3] (CST concentration 4000 ppm) came to 90 s. Besides, the “CST Time” value in series [3] (CST concentration 5000 ppm) was 68 s. The “CST Time” value in series [3] (CST concentration 6000 ppm) worked out at 92 s. Moreover, in series [4], the “WR (water release at 60 minutes) 2.0 gpt” value was found to be 2, the “WR (water release at 60 minutes) 4.0 gpt” value amounted to 9, the “WR (water release at 60 minutes) 6.0 gpt” value is reported as 22 and the “WR (water release at 60 minutes) 8.0 gpt” value worked out at 26. Moreover, the “WR (water release at 60 minutes) 10.0 gpt” value in series [4] was found to be 31. In addition, in series [5], the LC50 is 6030 µg/mL and the “toxicity to minnows compared with TMAC / prior art” value was “much less toxic than TMAC”.

In turn, `C[N+](C)(C)C.[Cl-]` [tetramethylammonium chloride, reference compound] displayed an LC50 in series [5] of 737 µg/mL.
